Assay [1] has as its system Gastric Acid Output. Description: Gastric antisecretory activity in the Gastric Fistula Rat (Table 2 title: Two-Hour Pylorus Ligated Rat). In kind it is in vivo, Long Evans rats. To be noted: numbers in parentheses are the 95% confidence limits. How it is done: Male Long Evans rats weighing about 240-260 grams at the time of cannula implantation are used. The design and implantation of the stainless steel cannula into the anterior wall of the fore-stomach are carried out essentially as described by Pare et al. [Laboratory Animal Science, 27, 244 (1977)]. The fistula components are designed and the operative procedure is carried out exactly as described in the above reference. Post operatively the animals are individually housed in solid bottom cages with sawdust and are allowed food and water ad libitum throughout the entire recovery period. Animals are not used for test purposes for at least 15 days after the operative procedure.
The animals are fasted but allowed water ad libitum for 20 hours before the testing procedure is to begin. Immediately prior to collection, the cannula is opened and the stomach washed gently with 30-40 mL of warm saline or distilled water to remove any residual contents. The catheter is then screwed into the cannula in place of the plugging screw and the rat is placed in a clear plastic rectangular cage measuring 40 cm long, 15 cm wide and 13 cm high. The bottom of the cage has a slit approximately 1.5 cm wide and 25 cm long running down the center to accommodate the catheter which hangs through it. In this way the rat is not restricted and can move freely about the cage during collection periods. The remainder of the assay is carried out as described by Ridley et al. [Research Comm. Chem. Path. Pharm., 17, 365 (1977)].
Gastric secretions collected during the first hour after washing the stomach are discarded as they may be contaminated. For oral evaluation, the catheter is then removed from the cannula and replaced with the plugging screw. Water (2 mL/kg) is administered orally via gastric intubation and the animal is returned to the cage for 45 minutes. After this time the plugging screw is removed and replaced with a catheter to which a small plastic vial has been attached to collect the gastric secretions. A two hour sample is collected (this represents the control secretion), the catheter removed and replaced with the plugging screw. The test drug is now administered orally in a volume of 2 mL/kg via gastric intubation. Forty-five minutes later the plugging screw is again removed, replaced with the catheter attached to a small plastic vial and another 2 hour sample is collected. The secretions in the second sample are compared to those of the control sample in order to determine the effects of the test drug.
When test compounds are to be evaluated parenterally, the animal is injected ip or sc with the test compound vehicle in a volume of 2 mL/kg immediately after discarding the initial 60 minute collection. A two hour sample is collected (control secretion) and the animals are injected either ip or sc with the test compound in a volume of 2 mL/kg. An additional two hour sample is collected and its secretions are compared to those of the control period to determing drug effects.
The samples are centrifuged in a graduated tube for volume determination. Titratable acidity is measured by titrating a one mL sample to pH 7.0 with 0.02N NaOH, using an Autoburet and an electrometric pH meter (Radiometer). Titratable acid output is calculated in microequivalents by multiplying the volume in milliliters by the acid concentration in milliequivalents per liter.
Results are expressed as percent inhibition relative to control readings. Dose response curves are constructed and ED values are calculated by regression analyses. At least three rats are used at each dosage level and a minimum of three dosage levels are utilized for determination of a dose response curve.

Assay [2] deals with acid output. Kind of assay: Gastric antisecretory activity in the Heidenhain Pouch Dog. In kind it is in vivo, dogs. The following applies: for Potency Ratio (cimetidine = 1.0): oral. How it is done: Prior to surgery, hematology and blood chemistry profiles are obtained and an assessment made as to the general health of selected female dogs. Dogs are vaccinated with Tissue Vax 5 (DHLP - Pitman-Moore) and housed in general animal quarters for four weeks' observation so incipient diseases may become apparent. Dogs are fasted with water ad libitum 24 hours prior to surgery.
Anesthesia is induced with Sodium Pentothal (Abbott) 25-30 mg/kg iv. Subsequent anesthesia is maintained with methoxy- flurane (Pitman-Moore). A mid-line linea alba incision from xiphoid to umbilicus provides good exposure and ease of closure. The stomach is pulled up into the operative field, the greater curvature stretched out at multiple points and clamps placed along the selected line of incision. The pouch is made from the corpus of the stomach so that true parietal cell juice is obtained. About 30% of the corpus volume is resected. The cannula is made of light-weight, biologically-inert material such as nylon or Delrin with dimensions and attachments after DeVito and Harkins [J. Appl. Physiol., 14, 138 (1959)]. Post operatively, dogs are medicated with antibiotics and an analgesic. They are allowed 2-3 months for recovery. Experiments are carried out in the following way: Dogs are fasted overnight (~18 hours) with water ad libitum prior to each experiment. The dogs are placed in a sling and a saphenous vein cannulated for drug administration. Histamine as the base (100 ug/kg/hr) and chlorpheniramine maleate (0.25 mg/kg/hr) are infused continuously (in a volume of 6 mL/hr) with a Harvard infusion pump.
Ninety minutes' infusion are allowed for the dogs to reach a steady state of acid output. At this time the drug or normal saline (control) is administered concomitantly with the secretagogue in a volume of 0.5 mL/kg over a 30 second period. When oral studies are to be carried out, the drug is administered via gastric gavage in a volume of 5 mL/kg. Infusion of the secretagogue is continued and 15 minute samples of.the gastric juice are taken for 4.5 hours. Each sample is measured to the nearest 0.5 mL and titratable acidity is determined by titrating a 1 mL sample to pH 7.0 with 0.2N NaOH, using an Autoburet and an electrometric pH meter (Radiometer). Titratable acid output is calculated in microequivalents by multiplying the volume in milliliters by the acid concentration in milliequivalents per liter.
Results are expressed as percent inhibition relative to control readings. Dose response curves are constructed and ED50 values are calculated by regression analyses. From 3 to 5 dogs are used at each dose level and a minimum of three dosage levels are utilized for determination of a dose response curve.

Assay [3] has as its system gastric erosions. Kind of assay: HCl-induced gastric erosions in rats, pretreatment with compound alone or with pepstatin. Format: in vivo, Long Evans rats. To be noted: probit analysis.
Protocol: Adult male, Long Evans rats weighing 280-300 g (Blue Spruce Farms, Alton, New York) were used. The animals were individually caged and food and water were removed 24 and 18 hours, respectively, prior to testing. On the following day, the test compound was administered orally to the animals 30 minutes before 1.0 mL of 0.75N HC1 was instilled into the stomach by gavage. Animals treated with the combination of the test compound and pepstatin received the test compound 30 minutes before, and a fixed amount of pepstatin (20 mg/kg po) 10 minutes before, the hydrochloric acid was administered. […] One hour after receiving the HC1 solution, the animals were sacrificed with an intraperitoneal injection of 0.2 mL of T-6r-, a euthanasia solution (National Laboratories Corp.).
The stomachs were photographed with a Polaroid" Close Up camera (Polaroid Corporation) and scoring was determined from the photographs. For scoring purposes, only those erosions with a minimum length of 1 mm were considered. The severity of gastric ulceration was defined for each animal as the sum of the maximum continuous lengths (in mm) of the erosions satisfying the above criteria. […]
Data were analyzed using the t-test for unpaired data and ED50 values were calculated from the dose response data using probit analysis [Finney, Probit Analysis, 3rd ed., University Press, Cambridge, England (1971)]. […]
In assay [4] the test system is gastric secretion. Description: Inhibition of gastric secretion by the oral route, rat. Format: in vivo.
The test system of assay [5] is gastric secretion. Kind of assay: Inhibition of gastric secretion by the oral route, dog. Format: in vivo.
The subject of assay [6] is ulcer formation. To be noted: two or more days of pretreatment, single agent; cited from earlier work.
In assay [7] the test system is gastric acid secretion. The following applies: normal volunteers and patients with duodenal ulcer; cited from earlier work.
The subject of assay [8] is pepsin. The following applies: gastric ulcer; cited from earlier work.
Where [9] appears, read: Rattus norvegicus, ip, Route of Administration i.p., read-out: ED50.
Setting [10] is: Rattus norvegicus, sc, Route of Administration s.c., read-out: ED50.

Where two headings read alike, the source gives them in different places.

As for `CN(C)Cc1ccc(CSCCNC2=NS(=O)(=O)N=C2NCCSCc2ccc(CN(C)C)o2)o1` [11 B], the ED50 in assay [1] (Route of Administration i.p.) was 0.69 (0.31-1.33) μmoles/kg. The “Potency Ratio (cimetidine = 1.0)” value in assay [2] is on record as 11. For `NC1=NS(=O)(=O)N=C1NCCCOc1cccc(CN2CCCC2)c1` [146 a], the ED50 in assay [1] (Route of Administration s.c.) is listed as 0.023 (0.0091-0.046) μmoles/kg. In assay [2], the “Potency Ratio (cimetidine = 1.0)” value is listed as roughly 20. Regarding `CCNC1=NS(=O)(=O)N=C1NCCSCc1ccc(CN(C)C)o1` [Example 12, 3-{2-[(5-Dimethylaminomethyl-2-furyl)methylthio]ethyl-amino]-4-ethylamino-1,2,5-thiadiazole 1,1-dioxide], the ED50 in assay [1] (setting [9]) was determined as 0.28 µmol/kg. For the same compound, the “Potency Ratio (cimetidine = 1.0)” value in assay [2] was 10.

Consider `CNc1n[s+]([O-])nc1NCCSCc1ccc(CN(C)C)o1` (stereo not drawn) [Example 18, 3-{2-[(5-Dimethylaminomethyl-2-furyl)methylthio]ethylamino}-4-methylamino-1,2,5-thiadiazole 1-oxide], for which the ED50 in assay [1] (setting [10]) was found to be 0.38 µmol/kg. Moreover, in assay [2], the “Potency Ratio (cimetidine = 1.0)” value came out at 18.

For `CNC1=NS(=O)(=O)N=C1NCCSCc1csc(NC(=N)N)n1` [Example 31, 3-{2-[(2-Guanidinothiazol-4-yl)methylthio)ethylamino}-4-methylamino-1,2,5-thiadiazole 1,1-dioxide], the ED50 in assay [1] (setting [9]) worked out at 0.41 µmol/kg. The “Potency Ratio (cimetidine = 1.0)” value in assay [2] is recorded as 13. Consider `NC(N)=Nc1nc(CSCCNC2=NS(=O)(=O)N=C2N)cs1` [Example 35, 3-Amino-4-{2-[(2-guanidinothiazol-4-yli)methylthio]ethyl-amino}-1,2,5-thiadiazole 1,1-dioxide], for which, in assay [1] (setting [10]), the ED50 worked out at 0.08 µmol/kg. In assay [2], the “Potency Ratio (cimetidine = 1.0)” value amounted to 20. The matching figures for `CNC1=NS(=O)(=O)N=C1NCCSCc1ccc(CN(C)C)s1` [Example 65, 3-{2-[(5-Dimethylaminomethyl-2-thienyl)methylthio]ethyl-amino}-4-methylamino-1,2,5-thiadiazole 1,I-dioxide]: 0.07 µmol/kg and 10.

`CN(C)Cc1cccc(OCCCNc2n[s+]([O-])nc2N)c1` (stereo not drawn) [Example 118, 3-Amino-4-[3-(3-dimethylaminomethylphenoxy)propylamino]-1,2,5-thiadiazole 1-oxide]: the ED50 in assay [1] (setting [10]) came to 0.066 µmol/kg. Besides, the “Potency Ratio (cimetidine = 1.0)” value in assay [2] came to 10.

For `CN(C)Cc1ccc(CSCCNC2=NS(=O)(=O)N=C2NCc2ccncc2)s1` [Example 130, 3-{2-[(5-Dimethylaminomethyl-2-thienyl)methylthio]ethylamino}-4-[(4-pyridyl)methylamino]-1,2,5-thiadiazole 1,1-dioxide], in assay [1] (setting [10]), the ED50 came out at 2.3 µmol/kg. For `CCNC1=NS(=O)(=O)N=C1NCCSCc1ccc(CN(C)C)s1` [Example 131, 3-{2-[(5-Dimethylaminomethyl-2-thienyl)methylthio]ethylamino}-4-ethylamino-1,2,5-thiadiazole 1,1-dioxide], the ED50 in assay [1] (setting [10]) is roughly 0.5 µmol/kg.

`CNC1=NS(=O)(=O)N=C1NCCCOc1cccc(CN2CCCCC2)c1` [Example 132, 3-Methylamino-4-{3-(3-piperidinomethylphenoxy)propylamino] - 1,2,5-thiadiazole 1,1-dioxide]: the ED50 in assay [1] (setting [10]) was found to be 0.025 µmol/kg. The same measure, in the same setting: with `NC1=NS(=O)(=O)N=C1NCCCOc1cccc(CN2CCCCC2)c1` [Example 134, 3-Amino-4-[3-(3-piperidinomethylphenoxy)propyiamino]-1,2,5-thiadiazole 1,1-dioxide] the figure was 0.024 µmol/kg. Same read-out and setting: with `CN(C)Cc1ccc(CSCCNC2=NS(=O)(=O)N=C2NCc2ccc3c(c2)OCO3)s1` [Example 135, 3-{2-[(5-Dimethylaminomethyl-2-thienyl)methylthio]ethylamino}-4-(3,4-methylenedioxybenzylamino)-1,2,5-thiadiazole 1,1-dioxide] the figure was 0.57 µmol/kg. On to `[O-][s+]1nc(NCCCOc2cccc(CN3CCCCC3)c2)c(NCc2cccnc2)n1` (stereo not drawn) [Example 149, 3-[(3-Pyridyl)methylamino]-4-[3-(3-piperidinomethylphenoxy)-proavlamino]-1,2,5-thiadiazole1-oxide], for which the ED50 in assay [1] (setting [10]) is roughly 0.08 µmol/kg. In addition, in assay [2], the “Potency Ratio (cimetidine = 1.0)” value stood at 10. Take `Nc1n[s+]([O-])nc1NCCSCc1ccc(CN2CCCCC2)o1` (stereo not drawn) [Example 151, 3-Amino-4-{2-.[(5-piperidinomethyl-2-furyl)methylthio]-ethylamino)-1,2,5-thiadiazole 1-oxide]: in assay [1] (setting [10]), the ED50 was found to be 0.9 µmol/kg. For the compound `CNC(=C[N+](=O)[O-])NCCSCc1ccc(CN(C)C)o1` [Ranitidine, ranitidine], the ED50 in assay [3] (Rattus norvegicus, po, compound alone, orally 30 minutes before 1.0 mL of 0.75N HCl, read-out: ED50 (mg/kg) for Inhibition of Ulcer Formation Alone) was 123 mg/kg. Besides, the “ED50 (mg/kg) for Inhibition of Ulcer Formation with Pepstatin” value in assay [3] (compound orally 30 minutes before and pepstatin 20 mg/kg po 10 minutes before HCl) came out at 104 mg/kg. Moreover, the “times as potent as cimetidine as an inhibitor of gastric secretion” value in assay [4] is listed as “about 4 times”; in assay [5], roughly 6 times. `CC1(C)[C@@H](OC(=O)CCC(=O)O)CC[C@]2(C)[C@H]3C(=O)C=C4[C@@H]5C[C@@](C)(C(=O)O)CC[C@]5(C)CC[C@@]4(C)[C@]3(C)CC[C@@H]12` [carbenoxolone]: the ulcer formation result in assay [6] is listed as “significantly decreased ulcer formation”.

For the compound `CN/C(=N/CCSCc1nc[nH]c1C)NC#N` [cimetidine], in assay [2] (Canis lupus familiaris, po, read-out: oral ED50), the ED50 was roughly 3.3 µmol/kg. Also, the ulcer formation entry in assay [6] was “significantly decreased ulcer formation”. For the same compound, the “basal and stimulated gastric acid secretion” value in assay [7] is “antagonize both basal and stimulated gastric acid secretion”. sucralfate: in assay [8], the “benefit in patients with gastric ulcer” value is recorded as “none”.

The values are drawn from patent EP0099121A2, “Pharmaceutical compositions” (Bristol-Myers Company, priority 1982, dated 1984).
